This note sets out measurements from patent US20130243794A1 (priority 2010, published 2013).

Entries after “also recorded” stand apart in the source; their conditions may differ.

One data set deals with baboons. The following applies: in vivo.
In the next data set the test system is Bacillus anthracis. Details: species or system baboons (Papio c. cynocephalus). The following applies: in vivo.

Consider Shiga toxin 1 [ST1], for which the “circulating bDNA after toxin administration” value in the data set on baboons is “insignificant levels”.
For the substance activated protein C [aPC], in the data set with Bacillus anthracis, the “blood cultures (bacterial colony counts)” value is reported as “no effect; also recorded: no significant difference between groups”; the “decreases in fibrinogen (and in platelets)” value is listed as “not mitigated”; the “liver and kidney function (ALT, AST, BUN, creatinine)” value is listed as “markedly spared”; the “peak bDNA load (16S bacterial DNA, plasma qPCR)” value is given as “no significant effect”. Besides, in the data set on Bacillus anthracis, the “peak plasma mtDNA (CytB) level during anthrax bacteremia” value is “approximately 200 ng/mL”; the “plasma bDNA (16S-rDNA) level and fall off over time” value is reported as “essentially identical fall off; also recorded: no effect; also recorded: does not affect”; the “plasma mtDNA levels after resolution of bacteremia” value is “mtDNA levels began falling after 24 hours; also recorded: plasma mtDNA levels decayed; also recorded: reduction in mtDNA”; the “respiratory rate (RR) / tachypnea” value is listed as “RR remained normal; also recorded: prevents tachypnea; also recorded: RR was unchanged”. Besides, the survival entry with Bacillus anthracis was “the animals survived; also recorded: all these animals survived”.
